This passage reports GI50 and TGI results from PubChem BioAssay (NCI).

Holding throughout (test): NCI tumour cell line growth inhibition, 48 h
Assay [1] relates to HS 578T breast.
The test system of assay [2] is NCI-H23 lung.
The subject of assay [3] is NCI-H226 lung.
For assay [4], the system named is SF-295 CNS.
In assay [5] the test system is BT-549 breast.
Assay [6] relates to MCF7 breast.
Assay [7] deals with ACHN renal.
The test system of assay [8] is KM12 colon.
The subject of assay [9] is SNB-75 CNS.
Assay [10] has as its system COLO 205 colon.

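Cultured in 96-well plates, cells were exposed to test compound for 48 hours across five concentrations. Here, GI50 denotes the concentration required for 50% inhibition of growth. At the TGI there is no net growth.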

Turning to `CCN(CC)CCCNCc1cc(-c2ccccc2)nc2cc(Cl)ccc12`, the GI50 in [1] is 2.01 µM; in assay [2], 12.5 µM; in assay [3], 11.8 µM; in [4], 1.8 µM; in assay [5], 8.65 µM; in assay [6], 1.69 µM. Also, the GI50 in [7] was 3.74 µM; in assay [8], 2.09 µM; in [9], 1.57 µM; in [10], 1.74 µM. Further, the TGI in assay [1] was found to be 5.29 µM; in [2] it was 27.3 µM; in assay [3] it was 27.3 µM; in [4], 4.37 µM; in assay [5], 21.6 µM; in assay [6], 4.06 µM. The TGI came to 14.2 µM in [7], 4.82 µM in assay [8], 4.34 µM in assay [9] and 3.27 µM in [10].

On to `Nc1nc(Cl)nc2c1ncn2C1OC(CO)C(O)C1F` (stereo not given), for which the GI50 in [1] is 4.71 µM; in assay [2], 0.02 µM; in assay [3] it was 0.216 µM; in [4] it was 1.68 µM; in [5], 0.664 µM; in assay [6] it was 0.163 µM. Also, the GI50 in assay [7] is 0.169 µM; in assay [8], 1.8 µM; in [9], 0.731 µM; in [10], 0.0951 µM. Also, the TGI is over 80.7 µM in assay [1]; 0.626 µM in assay [2]; over 17.3 µM in assay [3]; 13.5 µM in assay [4]; over 37.6 µM in [5]; over 100 µM in [6]. Besides, the TGI in assay [7] is over 21.2 µM; in [8], over 100 µM; in [9], over 26.1 µM; in assay [10], over 100 µM.

In the case of `Cc1cc(=O)[nH]c(N/N=C/c2ccccc2O)n1`, the GI50 in assay [1] is over 100 µM; in [2], 4.21 µM; in assay [3], 24.3 µM; in [4] it was 3.96 µM; in assay [5] it was 25.3 µM; in assay [6] it was 0.463 µM. Besides, the GI50 is 7.39 µM in assay [7], 18.4 µM in assay [8], 71.5 µM in assay [9] and 3.81 µM in assay [10]. In addition, the TGI in assay [1], in [2], in assay [3], in assay [4], in [5] and in assay [6] was over 100 µM throughout. For the same compound, the TGI in [7], in assay [8], in assay [9] and in assay [10] was over 100 µM each time.

`O=c1cc(-c2ccccc2)[nH]c2c1CCCC2`: the GI50 is 2.01 µM in [1]; 3.39 µM in assay [2]; 3.08 µM in assay [3]; 1.43 µM in assay [4]; 21.5 µM in [5]; 1.14 µM in assay [6]. For the same compound, the GI50 in [7] is 11.6 µM; in assay [8], 0.723 µM; in assay [9] it was 1.8 µM; in assay [10], 1.99 µM. For the same compound, the TGI in assay [1] is 8.56 µM; in assay [2], over 100 µM; in assay [3], 65.6 µM; in assay [4] it was 7.61 µM; in [5] it was over 100 µM; in [6], over 100 µM. Moreover, the TGI in assay [7] is over 100 µM; in assay [8], over 100 µM; in assay [9] it was over 100 µM; in [10], 6.42 µM.

On to `Fc1ccc2c(c1)C1=C(CCC2)C(c2ccc(Cl)cc2)NC(=S)N1` (stereo not given), for which the GI50 in [1] is 50.5 µM; in assay [2], 84.7 µM; in assay [3] it was 35.2 µM; in [4], 47 µM; in assay [5], over 100 µM; in [6] it was 26.6 µM. Further, the GI50 in assay [7] was 29.5 µM; in [8], 32.3 µM; in assay [9], 69.9 µM; in assay [10], 62.1 µM. For the same compound, the TGI in assay [1], in [2], in [3], in assay [4], in assay [5] and in [6] was over 100 µM in each case. The TGI in assay [7], in assay [8], in [9] and in assay [10] was over 100 µM each time.

Turning to `N#CC1=C(N)NC(N2CCOCC2)=NC12Nc1ccccc1O2` (stereo not given), the GI50 in [1] is 23.6 µM; in assay [2], 29.5 µM; in assay [3] it was 98.7 µM; in assay [4], 38.5 µM; in assay [5], 43.5 µM; in [6], 23.3 µM. Further, the GI50 in [7] is 34 µM; in [8], 49.8 µM; in assay [9], over 100 µM; in assay [10] it was 67.7 µM. In addition, the TGI in assay [1] was 68.1 µM; in assay [2] it was over 100 µM; in assay [3], over 100 µM; in assay [4], over 100 µM; in assay [5] it was over 100 µM; in assay [6], 64.2 µM. For the same compound, the TGI in assay [7], in [8], in assay [9] and in assay [10] was over 100 µM each time.

`O=C1NC(=O)C(c2cccc(Cl)c2)=C1Nc1ccc(Cl)c(C(=O)O)c1`: the GI50 in assay [1], in assay [2], in [3], in assay [4], in assay [5] and in assay [6] was over 25 µM throughout. Further, the GI50 in assay [7], in assay [8], in assay [9] and in assay [10] was over 25 µM in each case. Further, the TGI in assay [1], in assay [2], in [3], in assay [4], in [5] and in assay [6] was over 25 µM each time. In addition, the TGI in assay [7], in [8], in assay [9] and in assay [10] was over 25 µM in each case.

Turning to `OCCCCC#Cc1ccccc1C#Cc1cccnc1`, the GI50 in assay [1] was 44.9 µM; in assay [2] it was 28 µM; in [3], 34.1 µM; in assay [4], 22.3 µM; in [5], 28.4 µM; in assay [6], 67.5 µM. The GI50 in assay [7] was 28.3 µM; in assay [8], 35.2 µM; in [9], 40.3 µM; in assay [10] it was 28.4 µM. The TGI was over 100 µM in assay [1]; over 100 µM in assay [2]; over 100 µM in assay [3]; 60.4 µM in assay [4]; over 100 µM in assay [5]; over 100 µM in assay [6]. Further, the TGI in assay [7] is over 100 µM; in assay [8], over 100 µM; in [9], over 100 µM; in [10], 94.4 µM.
